One compound from PubChem BioAssay AID1224914 can be followed below.

The assay deals with Serine/threonine-protein kinase PAK 2 (Homo sapiens) (UniProt Q13177). Description: PubChem AID 1224914. As to conditions: PAK2 binding assay.

pKd: −log10 of the molar value.

Serine/threonine-protein kinase PAK 2 (Homo sapiens), sequence (Q13177 whole entry, looked up): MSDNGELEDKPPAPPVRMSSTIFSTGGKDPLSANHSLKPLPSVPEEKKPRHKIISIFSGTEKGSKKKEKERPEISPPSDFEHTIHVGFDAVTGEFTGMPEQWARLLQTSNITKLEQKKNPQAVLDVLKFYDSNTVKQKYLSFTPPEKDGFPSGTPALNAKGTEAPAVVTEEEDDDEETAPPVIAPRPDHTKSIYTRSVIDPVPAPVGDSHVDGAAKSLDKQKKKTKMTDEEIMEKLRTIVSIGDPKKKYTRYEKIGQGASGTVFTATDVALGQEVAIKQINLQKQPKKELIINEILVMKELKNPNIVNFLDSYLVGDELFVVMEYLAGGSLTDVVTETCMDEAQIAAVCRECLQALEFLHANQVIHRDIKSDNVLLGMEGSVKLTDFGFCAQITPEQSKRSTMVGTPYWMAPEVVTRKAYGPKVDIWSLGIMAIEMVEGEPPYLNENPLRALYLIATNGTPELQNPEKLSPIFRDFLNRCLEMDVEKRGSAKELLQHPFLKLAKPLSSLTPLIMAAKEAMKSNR

By pKd is commonly meant the Kd on a negative log10 scale, so that one unit is a factor of ten. In the case of `CC(C)NC(=O)N1CC[C@H](N=C2Nc3cc(F)ccc3N(CC(F)F)c3ccc(Cl)cc32)C1`, the pKd was 6.40.
